# Assay results from patent publication US10034879B2, “Substituted benzaldehyde compounds and methods for their use in increasing tissue oxygenation” (Global Blood Therapeutics, Inc., priority 2011, dated 2018).
# Legend:
# [1] = tested on: Transgenic mice producing human HbS; conditions: extreme hypoxia (5% oxygen), vs non-treated mice; cited from earlier work
# HbS = target: T1, HbS (Homo sapiens, UniProt P68871+P69905, E7V); experiment: Whole blood assay, oxygen equilibrium curves of whole blood from sickle cell patients; type: cell-based; conditions: hematocrit 20%, compound at 1000 μM
# T1 construct: Oxygen Equilibrium Curves (OEC) of whole blood before and after treatment; endogenous in cells; host or cells: whole blood (red blood cells) of homozygous sickle cell patients
# Method: Oxygen Equilibrium Curves (OEC) of whole blood before and after treatment with different concentrations of substituted benzaldehyde compounds were performed as follows using a HEMOX analyzer (TCS Scientific, New Hope, Pa.). Blood samples from homozygous sickle cell patients were obtained though the Hemoglobinopathy Center at Children's Hospital Oakland Research Institute (CHORI) with Institutional Review Board approval. The hematocrit was adjusted to 20% using autologous plasma and the blood samples were incubated for 1 hour at 37° C. in absence or presence of compounds. 100 μl of these samples were added to 5 mL of Hemox buffer (30 mM TES, 130 mM NaCl, 5 mM KCl, pH=7.4) at 37° C. and then transferred to the Hemox sample chamber. The samples were saturated with oxygen by flushing with compressed air for 10 minutes. The samples were then flushed with pure nitrogen and the respective absorbances of oxy- and deoxy-Hb are recorded as a function of the solution pO2. The oxygen equilibrium data were then fitted to the Hill Model to obtain values for p50. The deoxygenation curves for both whole blood alone (control) and whole blood in the presence of the compound were collected with the TCS software.
# Table 5 below lists the delta p50% values where + indicates a delta p50% of between 0 and 29, ++ indicates a delta p50% of between 30 and 50, and +++ indicates a delta p50% of 50 or greater. The compounds in Table 2 were tested at 1000 μM.
# HbS/A = target: T2, HbS/A (Homo sapiens, UniProt P68871+P69905, E7V); experiment: Relaxed-to-tense transition assay (R/T assay); type: biochemical; conditions: 3 μM HbS/A
# T2 construct: A mixture of HbS/A was purified from blood; from tissue; host or cells: blood of homozygous sickle cell patients
# Method: A relaxed-to-tense transition assay (“R/T assay”) was used to determine the ability of substituted benzaldehyde compounds to maintain the high-oxygen affinity relaxed (R) state of hemoglobin under deoxygenated conditions. This ability can be expressed as a “delta R” value (i.e., the change in the time-period of the R state after hemoglobin is treated with a compound, as compared to the period without treatment with the compound). Delta R is the % R to remaining after the compounds treatment compared with no treatment (e.g. if R % without treatment is 8% while with treatment with a target compound is 48% R at 30 μM, then % R is 40% for that compound.
# A mixture of HbS/A was purified from blood obtained from homozygous sickle cell patients though the Hemoglobinopathy Center at Children's Hospital Oakland Research Institute (CHORI) with Institutional Review Board approval. HbS/A (at a final concentration of 3 μM) was incubated for 1 hr at 37° C. in presence or absence of compounds in […] potassium phosphate buffer, pH=7.4 and 30 μM 2, 3 diphosphoglycerate (DPG) in 96 well plates in a final volume of 160 μl. Compounds were added at different concentrations (3 μM to 100 μM final concentrations). Plates were covered with a Mylar film. After incubation was completed the Mylar cover was removed and the plates were placed in a Spectrostar Nano plate reader previously heated at 37° C. Five minutes later, N2 (flow rate=20 L/min) was flowed through the spectrophotometer. Spectroscopic measurements (300 nm to 700 nm) were taken every 5 min for 2 hours. Data analysis was performed by using linear regression from the data retrieved for all wavelengths.
# Table 4 below lists the delta R values where + indicates a delta R of between 0 and 30, ++ indicates a delta R of between 30 and 50, and +++ indicates a delta R of 50 or greater. Unless noted otherwise, the compounds in Table 2 were tested at 9 μM.
# purified HBS = target: T3, purified HBS (Homo sapiens, UniProt P68871+P69905, E7V); experiment: HbS polymerization assay (delay time); type: biochemical; conditions: 50 μM purified HBS, 1.8 M potassium phosphate pH 7.4
# T3 construct: HbS is purified by the CRO VIRUSYS, from blood obtained from homozygous sickle cell patients; tissue VIRUSYS (CRO that did the purification); host or cells: blood of homozygous sickle cell patients
# Method: Polymerization assays are carried out in vitro using purified HBS exchanged into 1.8 M potassium phosphate buffer at pH 7.4. Using a slightly modified protocol (Antonini and Brunori, 1971), HbS is purified by the CRO VIRUSYS, from blood obtained from homozygous sickle cell patients through the Hemoglobinopathy Center at Children's Hospital Oakland Research Institute (CHORI) with Institutional Review Board approval. Compounds are prepared in 100% DMSO and a desired amount is added to 50 μM of purified HBS at a final DMSO concentration of 0.3%. Final potassium phosphate concentration is adjusted to 1.8 M using a combination of 2.5 M potassium phosphate stock solution and water at pH 7.4. The reaction mixture is incubated for an hour at 37° C. and then transferred into a 24-well plate for deoxygenation in a glove box containing 99.5% nitrogen and 0.5% oxygen. The 24-well plate is not covered and incubated at 4° C. on a plate cooler inside the glove box for one and a half hours. Fifty μL of the reaction mixture is transferred into a 96-well plate and the absorbance at 700 nm is measured every minute for one hour at 37° C. in a plate reader located inside the glove box. A plot of the absorbance against time is fitted using a Boltzman sigmoidal fit and the delay time (from zero to time at half Vmax) is measured. To compare and rank compounds, delay times are expressed as percent delay (% DT), which is defined as the difference in delay times for HBS/compound and HBS alone multiplied by 100 and divided by the delay time for HBS alone.
# Compounds listed below have been tested in the polymerization assay. Activity ranges are defined by the number of dagger (†) symbols indicated. † denotes activity ≤40% but ≤80%; †† denotes activity >80% but ≤120%; ††† denotes activity >120% but ≤140%; †††† denotes activity >160%.
SMILES,amounts of hypoxia-induced sickled red blood cells [1],survival times [1],delta p50% (HbS),delta R (%) (HbS/A; compound at 9 μM),% delta Delay (purified HBS),delta R (%) (HbS/A; compound at 30 μm)
"O=Cc1ccc(CO)o1 [Compound 5HMF, 5-hydroxymethyl-2-furfuraldehyde]",reduced,significantly improved,–,–,–,–
"O=Cc1c(O)cccc1OCc1ccc(-c2nn[nH]n2)cc1 [Compound 45, 2-((4-(2H-tetrazol-5-yl)benzyl)oxy)-6-hydroxybenzaldehyde]",–,–,+ (+ indicates a delta p50% of between 0 and 29),+++ (+++ indicates a delta R of 50 or greater),†† (†† denotes activity >80% but ≤120%),–
"O=Cc1ccccc1OCc1ccc(C(=O)O)cc1 [Compound 47, 4-((2-formylphenoxy)methyl)benzoic acid]",–,–,–,–,†† (†† denotes activity >80% but ≤120%),–
"O=Cc1c(O)cccc1OCc1ccc(C(=O)O)cc1 [Compound 42, 4-((2-formyl-3-hydroxyphenoxy)methyl)benzoic acid]",–,–,+ (+ indicates a delta p50% of between 0 and 29),–,†† (†† denotes activity >80% but ≤120%),+++ (30 μm) (+++ indicates a delta R of 50 or greater)
"O=Cc1c(O)cccc1OCc1cccc(-c2nn[nH]n2)c1 [Compound 44, 2-((3-(2H-tetrazol-5-yl)benzyl)oxy)-6-hydroxybenzaldehyde]",–,–,+ (+ indicates a delta p50% of between 0 and 29),+++ (+++ indicates a delta R of 50 or greater),–,–
